# Results as given in patent US8076331B2, “Substituted pyridazine derivatives” (Cephalon, Inc., priority 2008, dated 2011).
# Assays:
# human H3 receptor = target: T1, human H3 receptor (Homo sapiens, UniProt Q9Y5N1); assay: Human H3 radioligand binding ([3H]-N-alpha-methylhistamine, CHO cell membranes); conditions: membranes of CHO cells stably expressing the human H3 receptor; [3H]-N-alpha-methylhistamine approx. 1 nM
# T1 construct: expressed in transfected cells
# Protocol: Methods: CHO cells stably expressing the human H3 receptor (GenBank: NM_007232) were harvested and cell pellets were frozen (—80° C.). Cell pellets were resuspended in 5 mM Tris-HCl, pH 7.5 with […] and a cocktail of protease inhibitors (Complete Protease Inhibitior Tablets, Roche Diagnostics). Cells were disrupted using a polytron cell homogenizer and the suspension was centrifuged at 1000×g for 10 minutes at 4° C. The pellet was discarded and the supernatant centrifuged at 40,000×g for 30 min at 4° C. This membrane pellet was washed in membrane buffer containing 50 mM Tris-HCl, pH 7.5 with 0.6 mM EDTA, 5 mM MgCl2 and protease inhibitors, recentrifuged as above and the final pellet resuspended in membrane buffer plus 250 mM sucrose and frozen at −80° C.
# Radioligand Binding. Membranes were resuspended in 50 mM Tris HCl (pH 7.4), 5 mM MgCl2, 0.1% BSA. The membrane suspensions (10 μg protein per well) were incubated in a 96 well microtiter plate with [^3H]-N-alpha-methylhistamine (approximately 1 nM final concentration), test compounds at various concentrations (0.01 nM-30 μM) and scintillation proximity beads (Perkin Elmer, FlashBlueGPCR Scintillating Beads) in a final volume of 80 μl for 4 hours at room temperature, protected from light. Non-specific binding was determined in the presence of 10 μM clobenpropit. Radioligand bound to receptor, and therefore in proximity to the scintillation beads, was measured using a MicroBeta scintillation counter.
# T1 sequence (Q9Y5N1 whole entry): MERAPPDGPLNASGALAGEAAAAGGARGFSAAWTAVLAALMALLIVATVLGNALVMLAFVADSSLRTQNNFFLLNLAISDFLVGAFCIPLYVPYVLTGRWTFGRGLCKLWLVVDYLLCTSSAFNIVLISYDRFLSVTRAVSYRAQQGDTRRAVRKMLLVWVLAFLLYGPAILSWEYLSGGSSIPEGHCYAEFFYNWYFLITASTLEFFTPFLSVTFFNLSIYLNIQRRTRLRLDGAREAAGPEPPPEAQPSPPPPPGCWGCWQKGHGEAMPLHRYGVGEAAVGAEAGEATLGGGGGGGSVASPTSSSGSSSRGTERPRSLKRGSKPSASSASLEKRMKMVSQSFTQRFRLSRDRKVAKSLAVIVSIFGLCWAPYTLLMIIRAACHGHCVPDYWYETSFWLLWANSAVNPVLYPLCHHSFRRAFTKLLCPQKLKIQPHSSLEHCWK
Ki (human H3 receptor) [nM],melting point [°C],SMILES
< 50,144,"c1ccc(CSc2ccc(-c3ccc(OCCCN4CCCCC4)cc3)nn2)cc1 [Example 34, 3-Benzylsulfanyl-6-[4-(3-piperidin-1-yl-propoxy)-phenyl]pyridazine]"
< 50,186,"[O-][S+](Cc1ccccc1)c1ccc(-c2ccc(OCCCN3CCCCC3)cc2)nn1 (centres unmarked) [Example 36, 3-Phenylmethanesulfinyl-6-[4-(3-piperidin-1-yl-propoxy)phenyl]pyridazine]"
< 50,134,"O=S(=O)(Cc1ccccc1)c1ccc(-c2ccc(OCCCN3CCCCC3)cc2)nn1 [Example 38, 3-Phenylmethanesulfonyl-6-[4-(3-piperidin-1-yl-propoxy)phenyl]pyridazine]"
< 50,109,"COc1nnc(-c2ccc(OCCCN3CCC[C@H]3C)cc2)c2c1CCC2 [Example 39, 1-Methoxy-4-{4-[3-((R)-2-methylpyrrolidin-1-yl)-propoxy]-phenyl}6,7-dihydro-5H-cyclopenta[d]pyridazine]"
< 50,180,"C[C@@H]1CCCN1CCCOc1ccc(-c2ccc(-c3cc4ccccc4o3)nn2)cc1 [Example 41, 3-Benzofuran-2-yl-6-{4-[3-((R)-2-methyl-pyrrolidin-1-yl)-propoxy]-phenyl}pyridazine]"
< 50,122,"C[C@@H]1CCCN1CCCOc1ccc(-c2nnc(SCc3ccccc3)c3c2CCC3)cc1 [Example 42, 1-Benzylsulfanyl-4-{4-[3-((R)-2-methyl-pyrrolidin-1-yl)propoxy]-phenyl}-6,7-dihydro-5H-cyclopenta[d]pyridazine]"
> 101,108 to 110,"CC1CCCCN1C[C@H](C)COc1ccc(-c2ccc(Cl)nn2)cc1 (stereo partly drawn) [Example 44, 3-Chloro-6-{4-[(S)-2-methyl-3-(2-methylpiperidin-1-yl)propoxy]-phenyl}pyridazine]"
